Test results reported in PubChem BioAssay (NCI).
“And” between values parts separate entries of the source, which are not always exact repeats. Equal entries are not always repeated.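 Assay format: 96-well plates, 48-hour exposure. GI50 = concentration required for 50% inhibition of growth. At the TGI there is no net growth.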

How the values were obtained:
Assay in all cases: growth of human tumour cells (NCI), 48 h
[1] = system: 786-0 renal
[2] = system: A498 renal
[3] = system: A549 NSCLC
[4] = system: ACHN renal
[5] = system: BT-549 breast
[6] = system: CAKI-1 renal
[7] = system: CCRF-CEM leukemia
[8] = system: COLO 205 colon
[9] = system: DU-145 prostate
[10] = system: EKVX NSCLC
[11] = system: HCC-2998 colon
[12] = system: HCT-116 colon
[13] = system: HCT-15 colon
[14] = system: HL-60(TB) leukemia
[15] = system: HOP-62 NSCLC
[16] = system: HOP-92 NSCLC
[17] = system: HS 578T breast
[18] = system: HT29 colon
[19] = system: IGROV1 ovarian
[20] = system: K-562 leukemia
[21] = system: KM12 colon
[22] = system: LOX IMVI melanoma
[23] = system: M14 melanoma
[24] = system: MALME-3M melanoma
[25] = system: MCF7 breast
[26] = system: MDA-MB-231 breast
[27] = system: MDA-MB-435
[28] = system: MOLT-4 leukemia
[29] = system: NCI-H226 lung
[30] = system: NCI-H23 lung
[31] = system: NCI-H460 lung
[32] = system: NCI-H522 lung
[33] = system: NCI/ADR-RES ovarian
[34] = system: OVCAR-3 ovarian
[35] = system: OVCAR-4 ovarian
[36] = system: OVCAR-5 ovarian
[37] = system: OVCAR-8 ovarian
[38] = system: PC-3 prostate
[39] = system: RPMI-8226 leukemia
[40] = system: RXF 393 renal
[41] = system: SF-268 CNS
[42] = system: SF-295 CNS
[43] = system: SF-539 CNS
[44] = system: SK-MEL-2 melanoma
[45] = system: SK-MEL-28 melanoma
[46] = system: SK-MEL-5 melanoma
[47] = system: SK-OV-3 ovarian
[48] = system: SN12C renal
[49] = system: SNB-19 CNS
[50] = system: SNB-75 CNS
[51] = system: SR leukemia
[52] = system: SW-620 colon
[53] = system: T-47D breast
[54] = system: TK-10 renal
[55] = system: U251 CNS
[56] = system: UACC-257 melanoma
[57] = system: UACC-62 melanoma
[58] = system: UO-31 renal

How did the GI50 [1] turn out when `COc1cc(O)c2c(c1)/C=C/C[C@H](O)[C@H](O)C(=O)/C=C\C[C@H](C)OC2=O` was run?
The GI50 was 3.88 µM and 3.81 µM.

And the TGI [1]?
Its TGI is 8.49 µM and 15.8 µM.

What about the GI50 [2] of the same molecule?
The GI50 was 4.93 µM and 4.48 µM.

What about the TGI [2] of the same molecule?
Its TGI is 32.3 µM and 67.7 µM.

What about the GI50 [3] of the same molecule?
Its GI50 is 4.77 µM and 34.8 µM.

And the TGI [3]?
Its TGI is 33.5 µM and > 100 µM.

And the GI50 [4]?
Its GI50 is 877 nM and 1740 nM.

And the TGI [4]?
The TGI was 5.61 µM and 14.4 µM.

And the TGI [5]?
Its TGI is 3.28 µM and 13.1 µM.

What about the GI50 [6] of the same molecule?
The GI50 was 514 nM and 403 nM.

And the TGI [6]?
The TGI was 6.31 µM and 12.7 µM.

And the GI50 [7]?
Its GI50 is 1010 nM and 2420 nM.

What about the TGI [7] of the same molecule?
Its TGI is 11.4 µM and 9.13 µM.

What about the GI50 [8] of the same molecule?
Its GI50 is 61.4 nM and 194 nM.

What about the TGI [8] of the same molecule?
Its TGI is 3.98 µM and 12 µM.

And the GI50 [9]?
Its GI50 is 2.09 µM and 5.28 µM.

And the TGI [9]?
Its TGI is 13.8 µM and 18.6 µM.

And the GI50 [10]?
The GI50 was 3.01 µM and 15.3 µM.

What about the TGI [10] of the same molecule?
The TGI was 10.7 µM and 52.2 µM.

And the GI50 [11]?
Its GI50 is 2.46 µM and 9.46 µM.

And the TGI [11]?
The TGI was 7.09 µM and 23.3 µM.

What about the GI50 [12] of the same molecule?
Its GI50 is 515 nM and 601 nM.

What about the TGI [12] of the same molecule?
The TGI was 3.66 µM and 10 µM.

What about the GI50 [13] of the same molecule?
Its GI50 is 618 nM and 2170 nM.

What about the TGI [13] of the same molecule?
Its TGI is 4.64 µM and 12.4 µM.

And the GI50 [14]?
The GI50 was 218 nM and 205 nM.

What about the TGI [14] of the same molecule?
Its TGI is 4.27 µM and 2.55 µM.

What about the GI50 [15] of the same molecule?
Its GI50 is 4.14 µM and 14.5 µM.

What about the TGI [15] of the same molecule?
Its TGI is 10.9 µM and 40.2 µM.

And the GI50 [16]?
The GI50 was 165 nM and 223 nM.

And the TGI [16]?
The TGI was 3100 nM and 973 nM.

And the GI50 [17]?
The GI50 was 3.91 µM and 2.72 µM.

And the TGI [17]?
The TGI was 28.5 µM and 13.1 µM.

And the GI50 [18]?
Its GI50 is 46.2 nM and 82.1 nM.

And the TGI [18]?
The TGI was 4.35 µM and 10.3 µM.

What about the GI50 [19] of the same molecule?
Its GI50 is 3.74 µM and 2.64 µM.

And the TGI [19]?
The TGI was 16.9 µM and 20.9 µM.

What about the GI50 [20] of the same molecule?
The GI50 was 1110 nM and 2150 nM.

What about the TGI [20] of the same molecule?
The TGI was 27 µM and 12.3 µM.

What about the GI50 [21] of the same molecule?
Its GI50 is 1.54 µM and 5.53 µM.

What about the TGI [21] of the same molecule?
The TGI was 6.87 µM and 24.8 µM.

And the GI50 [22]?
Its GI50 is 477 nM and 1040 nM.

What about the TGI [22] of the same molecule?
Its TGI is 3.59 µM and 4.44 µM.

What about the GI50 [23] of the same molecule?
Its GI50 is 22 nM and 50 nM.

What about the TGI [23] of the same molecule?
Its TGI is 1.42 µM and 10.3 µM.

And the GI50 [24]?
The GI50 was 5.79 nM and 15.7 nM.

What about the TGI [24] of the same molecule?
Its TGI is 92.6 nM and 57.2 nM.

And the GI50 [25]?
The GI50 was 891 nM and 2890 nM.

What about the TGI [25] of the same molecule?
Its TGI is 4.13 µM and 10.9 µM.

And the TGI [26]?
The TGI was 7.26 µM and 27 µM.

What about the GI50 [27] of the same molecule?
The GI50 was 157 nM and 171 nM.

And the TGI [27]?
Its TGI is 6.56 µM and 2.55 µM.

And the GI50 [28]?
The GI50 was 763 nM and 2250 nM.

And the TGI [28]?
Its TGI is 3.75 µM and 8 µM.

And the GI50 [29]?
Its GI50 is 5.45 µM.

What about the TGI [29] of the same molecule?
Its TGI is 33.5 µM.

And the GI50 [30]?
Its GI50 is 559 nM.

What about the TGI [30] of the same molecule?
The TGI was 4.56 µM.

What about the GI50 [31] of the same molecule?
The GI50 was 2290 nM and 3340 nM.

What about the TGI [31] of the same molecule?
The TGI was 33.5 µM and 17.2 µM.

And the GI50 [32]?
The GI50 was 357 nM and 2050 nM.

What about the TGI [32] of the same molecule?
The TGI was 4.01 µM and 12.7 µM.

And the GI50 [33]?
The GI50 was 1.92 µM and 4.11 µM.

What about the TGI [33] of the same molecule?
The TGI was 9.55 µM and 31.5 µM.

What about the GI50 [34] of the same molecule?
Its GI50 is 991 nM and 2880 nM.

What about the TGI [34] of the same molecule?
Its TGI is 7.27 µM and 14.2 µM.

What about the GI50 [35] of the same molecule?
Its GI50 is 3.55 µM and 2.52 µM.

What about the TGI [35] of the same molecule?
Its TGI is 33.5 µM and 23.3 µM.

What about the GI50 [36] of the same molecule?
The GI50 was 3.61 µM and 4.27 µM.

And the TGI [36]?
The TGI was 10.3 µM and 22.6 µM.

And the GI50 [37]?
Its GI50 is 1440 nM and 2870 nM.

What about the TGI [37] of the same molecule?
The TGI was 7.22 µM and 14.6 µM.

And the GI50 [38]?
Its GI50 is 4.62 µM and 9.91 µM.

And the TGI [38]?
The TGI was 15 µM and 28.7 µM.

What about the GI50 [39] of the same molecule?
The GI50 was 815 nM and 1590 nM.

What about the TGI [39] of the same molecule?
Its TGI is 4.66 µM and 7.41 µM.

And the GI50 [40]?
The GI50 was 1070 nM and 2010 nM.

And the TGI [40]?
Its TGI is 5.7 µM and 7.21 µM.

And the GI50 [41]?
The GI50 was 4.7 µM and 12.8 µM.

And the TGI [41]?
Its TGI is 33.5 µM and 55.7 µM.

What about the GI50 [42] of the same molecule?
Its GI50 is 4.32 µM and 18.6 µM.

And the TGI [42]?
Its TGI is 11.1 µM and 45 µM.

What about the GI50 [43] of the same molecule?
Its GI50 is 1920 nM and 3120 nM.

What about the TGI [43] of the same molecule?
The TGI was 6.89 µM and 15.3 µM.

What about the GI50 [44] of the same molecule?
The GI50 was 2610 nM and 2810 nM.

And the TGI [44]?
The TGI was 9.12 µM and 13.7 µM.

And the GI50 [45]?
Its GI50 is 14.8 nM and 45.8 nM.

And the TGI [45]?
Its TGI is 3520 nM and 1040 nM.

What about the GI50 [46] of the same molecule?
Its GI50 is 331 nM and 2690 nM.

What about the TGI [46] of the same molecule?
Its TGI is 4.53 µM and 14.4 µM.

What about the GI50 [47] of the same molecule?
Its GI50 is 5.73 µM and 17.9 µM.

And the TGI [47]?
Its TGI is 21.6 µM and 80.3 µM.

What about the GI50 [48] of the same molecule?
Its GI50 is 1350 nM and 4120 nM.

What about the TGI [48] of the same molecule?
Its TGI is 9.17 µM and 23.7 µM.

And the GI50 [49]?
The GI50 was 5.71 µM and 14.9 µM.

What about the TGI [49] of the same molecule?
The TGI was 23.5 µM and 73.3 µM.

And the GI50 [50]?
The GI50 was 5.72 µM and 3.57 µM.

What about the TGI [50] of the same molecule?
Its TGI is 17 µM and 31 µM.

And the GI50 [51]?
The GI50 was 358 nM and 671 nM.

What about the TGI [51] of the same molecule?
The TGI was 5.94 µM and 6.49 µM.

And the GI50 [52]?
Its GI50 is 224 nM and 469 nM.

What about the TGI [52] of the same molecule?
Its TGI is 8.33 µM and 10.3 µM.

And the GI50 [53]?
The GI50 was 1180 nM and 2660 nM.

And the TGI [53]?
The TGI was 11.5 µM and 21.3 µM.

And the GI50 [54]?
Its GI50 is 1.86 µM and 5.29 µM.

What about the TGI [54] of the same molecule?
Its TGI is 7.31 µM and 31.1 µM.

What about the GI50 [55] of the same molecule?
The GI50 was 1.8 µM and 11.2 µM.

And the TGI [55]?
The TGI was 6.99 µM and 23.5 µM.

What about the GI50 [56] of the same molecule?
The GI50 was 25.2 nM and 139 nM.

What about the TGI [56] of the same molecule?
The TGI was 1740 nM and 1270 nM.

What about the GI50 [57] of the same molecule?
The GI50 was 17.3 nM and 113 nM.

What about the TGI [57] of the same molecule?
The TGI was 2.89 µM and 9.52 µM.

And the GI50 [58]?
Its GI50 is 237 nM and 326 nM.

What about the TGI [58] of the same molecule?
Its TGI is 5.42 µM and 11.9 µM.
